Results published in patent EP2601963B1, “N-ISOVALEROYL-L-GLUTAMYL-L-TRYPTOPHAN AS AN AGENT INHIBITING THE FORMATION OF ULCERS IN THE STOMACH AND THE DUODENUM” (Obshestvo S Ogranichennoj Otvetstvennostju "CytoNIR", priority 2010, dated 2015).

What was measured:
[1] = tested on: indomethacin-induced gastric ulcers; assay: Indomethacin-induced ulcer model, preventive treatment: gastric lesions; type: in vivo, male Wistar rats; set-up: key to GA1 (gastroprotective activity calculated for number of lesions): GA1 = Pauls Index of control / Pauls Index of treated group; key to GA2 (gastroprotective activity calculated for lesion size): GA2 = Ulcer Index of control / Ulcer Index of treated group; key to Ulcer Index: UI = mean lesion area in group x % animals with lesions / 100; Small round Size / Total Size / Large round Size / Linear Size / Lesion Size: unit not given here; conditions: for # Lesions / % Animals with Ulcers / GA1 (gastroprotective activity calculated for number of lesions) / GA2 (gastroprotective activity calculated for lesion size) / Lesion Size / PI / Ulcer Index / Large round Amount / Large round Size / Linear Amount / Linear Size / Small round Amount / Small round Size / Total Amount / Total Size: preventive; for Large round Amount / Large round Size / Linear Amount / Linear Size / Small round Amount / Small round Size / Total Amount / Total Size: indomethacin-induced ulcers
Procedure: (§1) All studies were conducted on male Wistar rats weighing 220 ± 20 g, obtained from Rappolovo nursery (Leningrad oblast). For 14 days prior to the experiment, the animals were held in isolation. The animals were handled in accordance with the European Convention for the Protection of Vertebrate Animals used for Experimental and Other Scientific Purposes (Strasburg, 1986). The animals were held in standard plastic cages and fed a standard diet of PK120-3 (granulated feed in accordance with order # 1179 M3 USSR 10/10/1983) with a free access to water.
(§2) Animals' body weight changes were monitored throughout the experiment. The experimental animals were then sacrificed by decapitation, and their blood was collected in test tubes. The stomachs were extracted, dissected along the major curve, rinsed with cold saline solution, and the mucosa was carefully examined through a magnifying glass under bright lights. The mucosa was inspected for color, the presence of hyperemia and its intensity. The number of lesions, which were differentiated into small round (less than 1 mm), linear, and large lesions (more than 1mm) and the size of the area they covered were calculated. The average number of lesions per one animal in a group and the percentage of animals with ulcers were also calculated. Pauls Index (PI) was used as an integral indicator of the number of lesions and was calculated as follows: • PI = average number of lesions in a group x % of animals with lesions/100 [Pauls F., Wick A.M.,Mac. Key E.M. et al. An assau method for anti ulcer substances // Gastroenterology.- 1947. #8.- p.p.774 - 782]. Ulcer index UI was calculated as: UI = average lesion area size in the group x % of animals with lesions/100; gastroprotective activity GA1 was calculated as: GA1 = PI of the control group/PI of the experimental group, GA2 = UI of the control group/UI of the experimental group.
(§3) Five groups of 10 animals per group were prepared for the experiment as described in Example 1.
In each series of experiments, the animals were divided into experimental and control groups at 10 animals per group. The animals in the experimental group were orally administered the proposed medication or a comparator drug, and the control animals were given distilled water in the same amount. • control group received distilled water per os; • experimental group 1 received 0.1 mkg/kg N-isovaleroyl-L-glutamyl-L-tryptophan; • experimental group 2 received 10 mkg/kg N-isovaleroyl-L-glutamyl-L-tryptophan; • experimental group 3 received 200 mkg/kg of the comparator drug Sucralfate.
The efficacy of the course of preventive treatment with the claimed composition was evaluated 24 hrs. post indomethacin administration. The study was conducted as in Example 1.

[2] = tested on: indomethacin-induced ulcers; assay: Indomethacin-induced ulcer model, therapeutic treatment: healing of gastric lesions; type: in vivo, male Wistar rats; set-up: key to gastroprotective activity (first value, GA1) / GA1 (gastroprotective activity calculated for number of lesions): GA1 = PI of control group / PI of experimental group; key to gastroprotective activity (second value, GA2): GA2 = UI of control group / UI of experimental group; key to Ulcer Index: UI = average lesion area in group × % animals with lesions / 100; Lesion Size: unit not given here
Procedure: as §1, §2, §3
In each series of the experiments, the animals were divided into experimental and control groups at 10 animals per group. The proposed medication or a comparator drug were orally administered to the animals in the experimental group, and the control animals were given distilled water in the same amount. • control group received distilled water per os; • experimental group 1 received 0.1 mkg/kg isovaleroyl glutamyl tryptophan; • experimental group 2 received 10 mkg/kg isovaleroyl glutamyl tryptophan; • experimental group 3 received 200 mkg/kg of the comparator drug Sucralfate.
2 ml/kg of the ulcerogenic dose of indomethacin equal to 30 mg/kg was administered intraperitoneally. The treatment started 24 hrs. post indomethacin administration and continued for 5 days. The animals in the experimental groups received N-isovaleroyl-L-glutamyl-L-tryptophan or the comparator drug Sucralfate, and the control group received distilled water.

[3] = 0.1 mkg/kg + Indomethacin 20 mg/kg
[4] = 10 mkg/kg + Indomethacin 20 mg/kg
[5] = 0.1 mkg/kg, treatment after Indomethacin
[6] = Indomethacin 30 mg/kg + 10 mkg/kg, treatment 5 days

## N-isovaleroyl-L-glutamyl-L-tryptophan [VGT preparation]
[1]; [3]
  # Lesions: 7.5 ± 1.0
  % Animals with Ulcers: 100%
  GA1 (gastroprotective activity calculated for number of lesions): 2.84
  GA2 (gastroprotective activity calculated for lesion size): 5.51
  Lesion Size: 4.1 ± 0.9
  PI: 7.5
  Ulcer Index: 4.1
[1]; 0.1 mkg/kg
  Large round Amount: 2.7 ± 0.5
  Large round Size: 1.4 ± 0.3
  Linear Amount: 2.0 ± 0.7
  Linear Size: 1.9 ± 0.7
  Small round Amount: 2.8 ± 0.7
  Small round Size: 0.8 ± 0.2
  Total Amount: 7.5 ± 1.0
  Total Size: 4.1 ± 0.9
[1]; [4]
  # Lesions: 8.3 ± 1.7
  % Animals with Ulcers: 100%
  GA1 (gastroprotective activity calculated for number of lesions): 2.57
  GA2 (gastroprotective activity calculated for lesion size): 5.51
  Lesion Size: 4.1 ± 1.6
  PI: 8.3
  Ulcer Index: 4.1
[1]; 10.0 mkg/kg
  Large round Amount: 3.5 ± 0.9
  Large round Size: 1.7 ± 0.6
  Linear Amount: 1.2 ± 0.5
  Linear Size: 1.8 ± 1.1
  Small round Amount: 3.6 ± 1.3
  Small round Size: 0.5 ± 0.1
  Total Amount: 8.3 ± 1.7
  Total Size: 4.1 ± 1.6
[1]; preventive treatment, indomethacin-induced lesions
  size of the lesions in the gastric mucosa reduced: 5 times
[2]; [5]
  gastroprotective activity (first value, GA1): 2
  gastroprotective activity (second value, GA2): 2.6
[2]; [6]
  # Lesions: 6.2 ± 1.3
  % Animals with Ulcers: 100%
  GA1 (gastroprotective activity calculated for number of lesions): 1.4
  Lesion Size: 23.6 ± 6.1
  PI: 6.2
  Ulcer Index: 23.6
